Measured values taken from publication PMC12261321, “Inhibitors of the Bacterioferritin Ferredoxin Complex Dysregulate Iron Homeostasis and Kill and Biofilm-Embedded Cells” (ACS Infectious Diseases, 2025).
Values joined by “and” are separate entries in the source; they are usually repeats but may differ in a detail not shown here. Identical values can stand only once.

What was measured:
[1] = tested on: A. baumannii 5075; assay: Checkerboard assay; type: cell-based
Method: To carry out the serial dilution from the highest compound concentration, a 150 μ L solution of higher concentration compound or antibiotic was mixed with 150 μ L of cell suspension containing […] Th e 96 well plate was in cubated for 20 hat 35 °C with continuous orbital shaking (205 cpm) in an Epoch2 microplate reader (BioTek), monitoring the growth by following the OD600. […] All assays were p erfo rmed in three biological replicates, each with three […] replicates. Checkerboard Assay. […] CFU/mL. […] in the vertical and hori zontal direction, respectivel y. Bacterial suspensions were […] escrib ed above fo r the MIC determination and added to the plates. […] The 96-well […] cubated for 20 h at 35 °C with continuous orbital shaking (205 cpm) in an Epoch2 microplate reader (BioTek), monitoring the growth by following the OD600. The MIC values of inhibitor and antibiotic were obtained from the corresponding row or column which contained only one component, whereas the remaining rows and columns were utilized for calculating the fractional inhibitory concentration index (FIC) with the aid of equation […] = […]2 Time Kill Assays. Time-kill assays were performed with A. baumannii 507 5 by the broth macro- dilution method […] An overnight culture was diluted to approximately 5 x10^5 CFU/mL in fresh […] media. […] DMSO, or by the addition of antibiotic dissolved in water and a small volume of DMSO to produce the desired S7

[2] = tested on: A. baumannii 5075; assay: Time kill assays; type: cell-based; conditions: for rate of killing: each agent at its MIC
Method: dissolved in DMSO, such that the resultant solution had the highest concentration of compound or antibiotic tested and 1.5% DMSO. To carry out the serial dilution from the highest compound concentration, a 150 μ L solution of higher concentration compound or antibiotic was mixed with 150 μ L of cell suspension containing 1.5% DMSO in the wells of a 96 well plate.
Th e 96 well plate was in cubated for 20 hat 35 °C with continuous orbital shaking (205 cpm) in an Epoch2 microplate reader (BioTek), monitoring the growth by […]
following the OD600. […]
Time Kill Assays. Time-kill assays were performed with A. baumannii 507 5 by the broth macro- dilution method in M63- medium containing 1.5% DMSO. An overnight culture was diluted to approximately 5 x10^5 CFU/mL in fresh M63 media. The test solutions were prepared by adding compound (KM-5- 35, or KM-5- 25) dissolved in DMSO to 5 mL of diluted cell suspension to yield a solution of the desired compound concentration and 1.5% DMSO, or by the addition of antibiotic dissolved in water and a small volume of DMSO to produce the desired […]
antibiotic concentration and 1.5% DMSO. Controls containing the diluted cell suspension, 1.5% DMSO but no test compounds were also prepared. […]
800 µL of the suspension was lay ered onto 700 µL of chilled silicon oil contained in 1.5 mL Eppendo rf tubes and then centrifuged at 4 °C ( 900 x g) for 10 min, then again at 16,200 x g for 5 min to allow pass ag e of the cell suspension through the silicon oil layer. The aqueous and oil layers were removed, and the cell pellet was washed twice in PBS (800 μ L), each time transferring the cell suspension to a new Eppendorf tube and then centrifuging at 16,200 x g. The cell pellet was lysed in 800 µL methanol by vortexing followed by 10 min incubationat room temperatur e. The lysate suspension was pelleted, the supernatant was transferred to a new Eppendorf tube and then placed into a vacuum concentrator (Eppendorf 5301 Vacufuge) to evaporate the methanol (4 h). The dried

Structure (SMILES)	FIC ([1]; KM-5–25 with colistin, 5075 (Figure S3))	FIC ([1]; KM-5–25 with imipenem, 5075 (Figure S3))	time kill outcome ([2]; compound at 1 × MIC)	time kill outcome ([2]; compound at 1.5 × MIC (limit of aqueous solubility))	reduction of viable cells (CFU/mL) relative to the inoculum ([2]; compound at the MIC)	time to approximately 3log10 reduction of viable cells ([2]; compound at the MIC)	rate of killing [2]	FIC ([1]; KM-5–35 with ceftazidime, 5075)	FIC ([1]; KM-5–35 with ciprofloxacin, 5075)	FIC ([1]; KM-5–35 with meropenem, 5075)	FIC ([1]; KM-5–35 with tobramycin, 5075)	MIC alone ([1]; agent alone, 5075, KM-5–35 14 μg/mL = 40 μM)	MIC of KM-5–35 in combination ([1]; in combination with ceftazidime, 5075)	MIC of KM-5–35 in combination ([1]; in combination with ciprofloxacin, 5075)	MIC of KM-5–35 in combination ([1]; in combination with imipenem, 5075)	MIC of KM-5–35 in combination ([1]; in combination with tobramycin, 5075)
O=C1NC(=O)c2c(NCc3cc(Cl)ccc3O)cccc21 [KM-5-25, 4-((5-Chloro-2-hydroxybenzyl)amino)isoindoline-1,3-dione]	0.36 and 0.38	0.63	cell growth is observed at later hours	bactericidal	approximately 3 log10	approximately 3 h	slower than that observed with KM-5–35									
O=C1NC(=O)c2c(NCc3cc(Br)ccc3O)cccc21 [KM-5-35, 4-((5-Bromo-2-hydroxybenzyl)amino)isoindoline-1,3-dione]			bactericidal		> 3 log10		faster than meropenem but slower than colistin	0.50	0.53	0.50	0.50	14 µg/mL	7 µg/mL	7 µg/mL	3.5 µg/mL	7 µg/mL
